Results as given in ChEMBL document CHEMBL4811243, “Design, synthesis, and biological evaluation of a novel dual peroxisome proliferator-activated receptor alpha/delta agonist for the treatment of diabetic kidney disease through anti-inflammatory mechanisms” (Eur J Med Chem, 2021).

What was measured:
[1] = target: T1, Peroxisome proliferator-activated receptor alpha (Homo sapiens, UniProt Q07869); assay: Agonist activity at human Gal4 fused PPARalpha LBD expressed in COS-7 cells incubated for 24 hrs by firefly luciferase reporter gene assay; format: cell-based
T1 sequence (Q07869 whole entry): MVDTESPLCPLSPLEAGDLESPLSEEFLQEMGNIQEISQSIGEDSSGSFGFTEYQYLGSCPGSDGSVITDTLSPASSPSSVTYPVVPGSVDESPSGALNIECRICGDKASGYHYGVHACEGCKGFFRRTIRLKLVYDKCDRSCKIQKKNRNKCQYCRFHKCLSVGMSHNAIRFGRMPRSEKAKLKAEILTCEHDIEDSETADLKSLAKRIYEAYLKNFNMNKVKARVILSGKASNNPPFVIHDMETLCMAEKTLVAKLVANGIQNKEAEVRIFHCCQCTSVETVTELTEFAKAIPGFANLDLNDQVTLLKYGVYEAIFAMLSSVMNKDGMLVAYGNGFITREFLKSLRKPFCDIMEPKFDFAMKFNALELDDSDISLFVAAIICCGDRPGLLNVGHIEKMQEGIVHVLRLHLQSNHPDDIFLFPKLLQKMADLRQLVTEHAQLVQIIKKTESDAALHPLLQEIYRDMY

[2] = target: T2, Peroxisome proliferator-activated receptor gamma (Homo sapiens, UniProt P37231); assay: Agonist activity at human Gal4 fused PPARgamma LBD expressed in COS-7 cells incubated for 24 hrs by firefly luciferase reporter gene assay; format: cell-based
T2 sequence (P37231 whole entry): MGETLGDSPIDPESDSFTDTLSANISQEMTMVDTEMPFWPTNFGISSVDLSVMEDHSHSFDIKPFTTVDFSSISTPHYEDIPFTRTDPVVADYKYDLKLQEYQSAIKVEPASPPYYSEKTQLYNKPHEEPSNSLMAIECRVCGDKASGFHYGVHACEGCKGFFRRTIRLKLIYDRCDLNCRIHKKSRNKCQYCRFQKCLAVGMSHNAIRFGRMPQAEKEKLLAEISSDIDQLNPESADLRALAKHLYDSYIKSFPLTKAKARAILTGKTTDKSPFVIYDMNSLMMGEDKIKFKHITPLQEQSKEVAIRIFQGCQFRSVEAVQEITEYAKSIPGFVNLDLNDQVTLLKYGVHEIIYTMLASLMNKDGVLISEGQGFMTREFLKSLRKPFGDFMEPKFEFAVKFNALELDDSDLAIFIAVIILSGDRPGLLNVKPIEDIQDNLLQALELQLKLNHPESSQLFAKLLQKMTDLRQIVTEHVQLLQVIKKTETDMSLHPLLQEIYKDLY

[3] = target: T3, Peroxisome proliferator-activated receptor delta (Homo sapiens, UniProt Q03181); assay: Agonist activity at human Gal4 fused PPARdelta LBD expressed in COS-7 cells incubated for 24 hrs by firefly luciferase reporter gene assay; format: cell-based
T3 sequence (Q03181 whole entry): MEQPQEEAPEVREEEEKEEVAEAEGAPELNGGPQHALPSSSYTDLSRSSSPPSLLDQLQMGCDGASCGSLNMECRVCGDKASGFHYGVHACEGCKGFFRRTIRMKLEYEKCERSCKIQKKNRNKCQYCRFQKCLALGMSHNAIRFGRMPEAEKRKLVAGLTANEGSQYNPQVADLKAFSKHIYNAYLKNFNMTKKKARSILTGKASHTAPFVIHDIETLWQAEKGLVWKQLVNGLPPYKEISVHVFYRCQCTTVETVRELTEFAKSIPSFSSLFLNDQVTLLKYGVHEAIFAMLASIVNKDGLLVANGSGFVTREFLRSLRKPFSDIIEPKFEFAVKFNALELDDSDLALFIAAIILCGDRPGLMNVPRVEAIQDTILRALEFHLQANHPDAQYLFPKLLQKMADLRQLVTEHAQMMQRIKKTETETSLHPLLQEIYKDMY

[4] = Hepatotoxicity in STZ-induced Sprague-Dawley rat diabetic kidney disease model assessed as serum ALT level at 25 to 50 mg/kg, po administered twice a day for 6 weeks; format: toxicity, organism-based; conditions: in vivo, 1008 h, dose 25-50 mg/kg
[5] = Hepatotoxicity in STZ-induced Sprague-Dawley rat diabetic kidney disease model assessed as serum AST level at 25 to 50 mg/kg, po administered twice a day for 6 weeks; format: toxicity, organism-based; conditions: in vivo, 1008 h, dose 25-50 mg/kg
[6] = Cytotoxicity against human GMCs assessed as reduction in cell viability at 1 to 30 uM after 48 hrs by CCK-8 assay; format: tissue-based; conditions: glomerular mesangial cell, dose 1-30 µM
THP-1 = assay: Cytotoxicity against human THP-1 assessed as reduction in cell viability at 1 to 30 uM after 48 hrs by CCK-8 assay; format: cell-based; conditions: thp-1, 48 h, dose 1-30 µM

| SMILES | EC50 [1] | EC50 [2] | other results |
| --- | --- | --- | --- |
| CSc1ccc(C(=O)/C=C/c2cc(C)c(OC(C)(C)C(=O)O)c(C)c2)cc1 [ELAFIBRANOR] | 0.76 µM | 2.79 µM | – |
| Cc1cc(COc2ccc3c(c2)O/C(=C\c2ccc(F)cc2)C3=O)cc(C)c1OC(C)(C)C(=O)O | > 10 µM | > 10 µM | EC50 [3]: > 10 µM |
| Cc1cc(COc2ccc3c(c2)O/C(=C\c2ccc(C(F)(F)F)cc2)C3=O)cc(C)c1OC(C)(C)C(=O)O | – | – | Activity [4]: Non-Toxic; Activity [5]: Non-Toxic; Activity [6]: Non-Toxic; Activity (THP-1): Non-Toxic |
| CCOc1ccc(/C=C2\Oc3cc(OCc4cc(C)c(OC(C)(C)C(=O)O)c(C)c4)ccc3C2=O)cc1 | > 10 µM | > 10 µM | – |
| Cc1ccc(/C=C2\Oc3cc(OCc4cc(C)c(OC(C)(C)C(=O)O)c(C)c4)ccc3C2=O)cc1 | – | > 10 µM | – |
| COc1ccc(/C=C2\Oc3cc(OCc4cc(C)c(OC(C)(C)C(=O)O)c(C)c4)ccc3C2=O)cc1 | > 10 µM | > 10 µM | – |
| Cc1cc(COc2ccc3c(c2)O/C(=C\c2ccc4ccccc4c2)C3=O)cc(C)c1OC(C)(C)C(=O)O | – | > 10 µM | – |
| Cc1cc(COc2ccc3c(c2)O/C(=C\c2ccc(Cl)cc2)C3=O)cc(C)c1OC(C)(C)C(=O)O | – | > 10 µM | – |
| Cc1cc(COc2ccc3c(c2)O/C(=C\c2ccccc2C(F)(F)F)C3=O)cc(C)c1OC(C)(C)C(=O)O | – | > 10 µM | – |
| Cc1cc(COc2ccc3c(c2)O/C(=C\c2ccc(C#N)cc2)C3=O)cc(C)c1OC(C)(C)C(=O)O | – | > 10 µM | – |
| Cc1cc(COc2ccc3c(c2)O/C(=C\c2ccc(C(C)C)cc2)C3=O)cc(C)c1OC(C)(C)C(=O)O | – | > 10 µM | – |
| Cc1cc(COc2ccc3c(c2)O/C(=C\c2ccc(Br)cc2)C3=O)cc(C)c1OC(C)(C)C(=O)O | – | > 10 µM | – |
| Cc1cc(COc2ccc3c(c2)O/C(=C\c2ccccc2)C3=O)cc(C)c1OC(C)(C)C(=O)O | – | > 10 µM | – |
